Assay results: PubChem BioAssay (NCI)
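Interpolation was linear, between the two tested concentrations surrounding the appropriate level; five concentrations were tested over 48 hours in 96-well plates. Definition used: TGI = concentration required for complete inhibition of growth.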

Assays:
Test in all cases: NCI-60 cell line screen, 48 h
[1] = system: 786-0 renal
[2] = system: A498 renal
[3] = system: A549 NSCLC
[4] = system: ACHN renal
[5] = system: BT-549 breast
[6] = system: CAKI-1 renal
[7] = system: COLO 205 colon
[8] = system: DU-145 prostate
[9] = system: EKVX NSCLC
[10] = system: HCC-2998 colon
[11] = system: HCT-116 colon
[12] = system: HCT-15 colon
[13] = system: HOP-62 NSCLC
[14] = system: HOP-92 NSCLC
[15] = system: HS 578T breast
[16] = system: HT29 colon
[17] = system: IGROV1 ovarian
[18] = system: KM12 colon
[19] = system: LOX IMVI melanoma
[20] = system: M14 melanoma
[21] = system: MALME-3M melanoma
[22] = system: MCF7 breast
[23] = system: MDA-MB-231 breast
[24] = system: MDA-MB-435
[25] = system: MDA-N
[26] = system: NCI-H226 lung
[27] = system: NCI-H23 lung
[28] = system: NCI-H460 lung
[29] = system: NCI-H522 lung
[30] = system: NCI/ADR-RES ovarian
[31] = system: OVCAR-3 ovarian
[32] = system: OVCAR-4 ovarian
[33] = system: OVCAR-5 ovarian
[34] = system: OVCAR-8 ovarian
[35] = system: PC-3 prostate
[36] = system: SF-268 CNS
[37] = system: SF-295 CNS
[38] = system: SK-MEL-2 melanoma
[39] = system: SK-MEL-5 melanoma
[40] = system: SK-OV-3 ovarian
[41] = system: SN12C renal
[42] = system: SNB-19 CNS
[43] = system: SNB-75 CNS
[44] = system: SW-620 colon
[45] = system: T-47D breast
[46] = system: TK-10 renal
[47] = system: U251 CNS
[48] = system: UACC-257 melanoma
[49] = system: UACC-62 melanoma
[50] = system: UO-31 renal
[51] = system: CCRF-CEM leukemia
[52] = system: HL-60(TB) leukemia
[53] = system: K-562 leukemia
[54] = system: MOLT-4 leukemia
[55] = system: RPMI-8226 leukemia
[56] = system: RXF 393 renal
[57] = system: SF-539 CNS
[58] = system: SK-MEL-28 melanoma
[59] = system: SR leukemia

Brc1cccc(Nc2ncnc3sc4c(c23)CCC2(C4)OCCO2)c1
TGI [1]: > 100 µM
TGI [2]: 42 µM
TGI [3]: > 100 µM
TGI [4]: > 100 µM
TGI [5]: 75.2 µM
TGI [6]: > 100 µM
TGI [7]: 35.6 µM
TGI [8]: 50.1 µM
TGI [9]: > 100 µM
TGI [10]: 72.1 µM
TGI [11]: > 100 µM
TGI [12]: > 100 µM
TGI [13]: > 100 µM
TGI [14]: 48.6 µM
TGI [15]: > 100 µM
TGI [16]: > 100 µM
TGI [17]: 30.9 µM
TGI [18]: 80.4 µM
TGI [19]: 40.9 µM
TGI [20]: 68.6 µM
TGI [21]: > 100 µM
TGI [22]: > 100 µM
TGI [23]: > 100 µM
TGI [24]: 87 µM
TGI [25]: > 100 µM
TGI [26]: 77.6 µM
TGI [27]: > 100 µM
TGI [28]: > 100 µM
TGI [29]: 33.8 µM
TGI [30]: 76.4 µM
TGI [31]: > 100 µM
TGI [32]: 94.5 µM
TGI [33]: > 100 µM
TGI [34]: > 100 µM
TGI [35]: > 100 µM
TGI [36]: > 100 µM
TGI [37]: > 100 µM
TGI [38]: 79.7 µM
TGI [39]: 32.3 µM
TGI [40]: > 100 µM
TGI [41]: > 100 µM
TGI [42]: > 100 µM
TGI [43]: 80.9 µM
TGI [44]: 28.9 µM
TGI [45]: 40.9 µM
TGI [46]: 68.9 µM
TGI [47]: > 100 µM
TGI [48]: 91.4 µM
TGI [49]: 70.5 µM
TGI [50]: > 100 µM

CC(=O)OCC12C(OC(C)=O)C(=O)C3C(OC(C)=O)C14OC3(C)COC(=O)c1cccnc1C(C)C(C)C(=O)OC(C(OC(C)=O)C2OC(C)=O)C4(C)O (stereo not given)
TGI [1]: > 100 µM
TGI [2]: > 100 µM
TGI [3]: > 100 µM
TGI [4]: > 100 µM
TGI [5]: > 100 µM
TGI [6]: > 100 µM
TGI [51]: > 100 µM
TGI [7]: > 100 µM
TGI [8]: > 100 µM
TGI [9]: > 100 µM
TGI [10]: > 100 µM
TGI [11]: > 100 µM
TGI [12]: > 100 µM
TGI [52]: > 100 µM
TGI [13]: > 100 µM
TGI [14]: > 100 µM
TGI [15]: > 100 µM
TGI [16]: > 100 µM
TGI [17]: > 100 µM
TGI [53]: > 100 µM
TGI [18]: > 100 µM
TGI [19]: > 100 µM
TGI [20]: > 100 µM
TGI [21]: > 100 µM
TGI [22]: > 100 µM
TGI [23]: > 100 µM
TGI [24]: > 100 µM
TGI [25]: > 100 µM
TGI [54]: > 100 µM
TGI [26]: > 100 µM
TGI [27]: > 100 µM
TGI [28]: > 100 µM
TGI [29]: > 100 µM
TGI [31]: > 100 µM
TGI [32]: > 100 µM
TGI [33]: > 100 µM
TGI [34]: > 100 µM
TGI [35]: > 100 µM
TGI [55]: > 100 µM
TGI [56]: > 100 µM
TGI [36]: > 100 µM
TGI [37]: > 100 µM
TGI [57]: > 100 µM
TGI [38]: > 100 µM
TGI [58]: > 100 µM
TGI [39]: > 100 µM
TGI [40]: > 100 µM
TGI [41]: > 100 µM
TGI [42]: > 100 µM
TGI [43]: > 100 µM
TGI [59]: > 100 µM
TGI [44]: > 100 µM
TGI [45]: > 100 µM
TGI [46]: > 100 µM
TGI [47]: > 100 µM
TGI [48]: > 100 µM
TGI [49]: > 100 µM
TGI [50]: > 100 µM

COC(=O)C(C)(C)NC(=O)C(Cc1ccccc1)Nc1ncnc2c1ncn2-c1ccc(OC)cc1 (stereo not given)
TGI [1]: > 100 µM
TGI [2]: 72.7 µM
TGI [3]: > 100 µM
TGI [4]: > 100 µM
TGI [5]: 98.6 µM
TGI [6]: > 100 µM
TGI [51]: 35.8 µM
TGI [7]: > 100 µM
TGI [8]: > 100 µM
TGI [9]: 45.6 µM
TGI [10]: > 100 µM
TGI [11]: > 100 µM
TGI [12]: > 100 µM
TGI [13]: > 100 µM
TGI [14]: 58.2 µM
TGI [15]: 79.8 µM
TGI [16]: 46.6 µM
TGI [17]: > 100 µM
TGI [53]: > 100 µM
TGI [18]: 96.7 µM
TGI [19]: > 100 µM
TGI [20]: > 100 µM
TGI [22]: 72.4 µM
TGI [23]: > 100 µM
TGI [24]: 32 µM
TGI [25]: 43.9 µM
TGI [26]: > 100 µM
TGI [27]: > 100 µM
TGI [28]: 73.5 µM
TGI [29]: 34.2 µM
TGI [30]: > 100 µM
TGI [31]: > 100 µM
TGI [32]: > 100 µM
TGI [33]: > 100 µM
TGI [34]: > 100 µM
TGI [35]: > 100 µM
TGI [55]: > 100 µM
TGI [36]: > 100 µM
TGI [37]: > 100 µM
TGI [38]: > 100 µM
TGI [58]: > 100 µM
TGI [39]: > 100 µM
TGI [40]: > 100 µM
TGI [41]: > 100 µM
TGI [42]: > 100 µM
TGI [43]: 69.1 µM
TGI [44]: 54.1 µM
TGI [45]: 58.2 µM
TGI [46]: > 100 µM
TGI [47]: > 100 µM
TGI [48]: > 100 µM
TGI [49]: > 100 µM
TGI [50]: > 100 µM

COc1ccc(N2C(=O)C3c4[nH]c5c(C)cccc5c4C4CCC(c5ccccc5)CC4C3C2=O)cc1 (stereo not given)
TGI [1]: > 100 µM
TGI [2]: 39.1 µM
TGI [3]: 24.2 µM
TGI [4]: 43.5 µM
TGI [5]: 47.8 µM
TGI [6]: 39.3 µM
TGI [51]: 4.41 µM
TGI [7]: 83.9 µM
TGI [8]: 31.1 µM
TGI [9]: 63.4 µM
TGI [11]: > 100 µM
TGI [12]: > 100 µM
TGI [13]: 27.3 µM
TGI [14]: 41 µM
TGI [15]: 28.6 µM
TGI [16]: 21.3 µM
TGI [17]: 33.5 µM
TGI [18]: 42.2 µM
TGI [19]: > 100 µM
TGI [20]: 26 µM
TGI [22]: 21.7 µM
TGI [23]: 78.2 µM
TGI [24]: 34.3 µM
TGI [25]: 34.3 µM
TGI [26]: 46.3 µM
TGI [27]: 67.7 µM
TGI [28]: 18.2 µM
TGI [29]: 16.7 µM
TGI [30]: 66.4 µM
TGI [31]: 60.4 µM
TGI [32]: 26.6 µM
TGI [33]: 28.8 µM
TGI [34]: 36.8 µM
TGI [35]: 28.2 µM
TGI [55]: 30.4 µM
TGI [36]: 20.3 µM
TGI [37]: 40.2 µM
TGI [38]: 60.8 µM
TGI [58]: 27.9 µM
TGI [40]: 34 µM
TGI [41]: 59.5 µM
TGI [42]: 76.3 µM
TGI [43]: 24.4 µM
TGI [44]: 40.5 µM
TGI [45]: 28.6 µM
TGI [46]: > 100 µM
TGI [48]: 51.2 µM
TGI [50]: 43.3 µM

COc1cccc(C2c3cc4c(cc3OC(NNc3ccccc3)C2C)OCO4)c1OC (stereo not given)
TGI [1]: > 100 µM
TGI [2]: 88.1 µM
TGI [3]: > 100 µM
TGI [4]: > 100 µM
TGI [5]: 67.2 µM
TGI [6]: > 100 µM
TGI [51]: 31.6 µM
TGI [7]: 15.7 µM
TGI [8]: 68.7 µM
TGI [9]: 32.3 µM
TGI [10]: 6.79 µM
TGI [11]: 23.4 µM
TGI [12]: > 100 µM
TGI [52]: 17 µM
TGI [13]: > 100 µM
TGI [15]: 80.1 µM
TGI [16]: 58.2 µM
TGI [17]: > 100 µM
TGI [53]: 9.05 µM
TGI [18]: > 100 µM
TGI [19]: > 100 µM
TGI [20]: > 100 µM
TGI [21]: 70.7 µM
TGI [22]: 76.2 µM
TGI [23]: > 100 µM
TGI [24]: > 100 µM
TGI [25]: > 100 µM
TGI [54]: 53.3 µM
TGI [26]: 74.4 µM
TGI [27]: 96.9 µM
TGI [28]: > 100 µM
TGI [29]: > 100 µM
TGI [31]: 24 µM
TGI [33]: > 100 µM
TGI [34]: > 100 µM
TGI [35]: 46.6 µM
TGI [55]: > 100 µM
TGI [56]: 44.1 µM
TGI [36]: > 100 µM
TGI [37]: 4.24 µM
TGI [57]: 84.2 µM
TGI [38]: > 100 µM
TGI [58]: > 100 µM
TGI [39]: > 100 µM
TGI [40]: > 100 µM
TGI [41]: > 100 µM
TGI [42]: > 100 µM
TGI [43]: > 100 µM
TGI [59]: 18.8 µM
TGI [44]: > 100 µM
TGI [45]: > 100 µM
TGI [46]: 25.1 µM
TGI [47]: > 100 µM
TGI [48]: 71.5 µM
TGI [49]: > 100 µM
TGI [50]: > 100 µM
